The text below walks through data of US20190099421A1, “CINNOLIN-4-AMINE COMPOUNDS AND THEIR USE IN TREATING CANCER” (AstraZeneca AB, priority 2016, published 2019).

The assay deals with T1, ATM (Homo sapiens, UniProt Q13315).
T1 construct: endogenous in cells; host or cells: HT29 cells (ECACC #85061109)
In words: Assay a): ATM cellular potency (pATM Ser1981 in irradiated HT29 cells). The class given is cell-based. As to conditions: 1 h compound incubation, X-ray irradiation ~600 cGy, pATM (Ser1981) staining 1 h later; read-out: Assay a) ATM Cell IC50. The method, then: IC50 values were calculated using a smart fitting model in Genedata.
Most ATM molecules in the cell are rapidly phosphorylated on this site after doses of radiation as low as 0.5 Gy, and binding of a phosphospecific antibody is detectable after the introduction of only a few DNA double-strand breaks in the cell.
The rationale of the pATM assay is to identify inhibitors of ATM in cells. HT29 cells are incubated with test compounds for 1 hr prior to X-ray-irradiation. 1 h later the cells are fixed and stained for pATM (Ser1981). The fluorescence is read on the arrayscan imaging platform.
The following morning compounds of Formula (I) in 100% DMSO were added to assay plates by acoustic dispensing. After 1 h incubation at 37° C. and 5% CO2, plates (up to 6 at a time) were irradiated using the X-RAD 320 instrument (PXi) with equivalent to ˜600 cGy. Plates were returned to the incubator for a further 1 h. […] Then 20 μl of 0.1% Triton X100 in PBS was added and incubated for 20 minutes at r.t., to permeabalise cells. Then the plates were washed once with 50 μl/well PBS, using a Biotek EL405 plate washer.
After 1 h incubation at r.t., the plates were washed three times with 50 μl/well PBS, using a Biotek EL405 plate washer, and plates were sealed and kept in PBS at 4° C. until read. Plates were read using an ArrayScan VTI instrument, using an XF53 filter with 10× objective.

By IC50 is commonly meant the concentration that gives 50% inhibition.

T1 sequence (Q13315 whole entry): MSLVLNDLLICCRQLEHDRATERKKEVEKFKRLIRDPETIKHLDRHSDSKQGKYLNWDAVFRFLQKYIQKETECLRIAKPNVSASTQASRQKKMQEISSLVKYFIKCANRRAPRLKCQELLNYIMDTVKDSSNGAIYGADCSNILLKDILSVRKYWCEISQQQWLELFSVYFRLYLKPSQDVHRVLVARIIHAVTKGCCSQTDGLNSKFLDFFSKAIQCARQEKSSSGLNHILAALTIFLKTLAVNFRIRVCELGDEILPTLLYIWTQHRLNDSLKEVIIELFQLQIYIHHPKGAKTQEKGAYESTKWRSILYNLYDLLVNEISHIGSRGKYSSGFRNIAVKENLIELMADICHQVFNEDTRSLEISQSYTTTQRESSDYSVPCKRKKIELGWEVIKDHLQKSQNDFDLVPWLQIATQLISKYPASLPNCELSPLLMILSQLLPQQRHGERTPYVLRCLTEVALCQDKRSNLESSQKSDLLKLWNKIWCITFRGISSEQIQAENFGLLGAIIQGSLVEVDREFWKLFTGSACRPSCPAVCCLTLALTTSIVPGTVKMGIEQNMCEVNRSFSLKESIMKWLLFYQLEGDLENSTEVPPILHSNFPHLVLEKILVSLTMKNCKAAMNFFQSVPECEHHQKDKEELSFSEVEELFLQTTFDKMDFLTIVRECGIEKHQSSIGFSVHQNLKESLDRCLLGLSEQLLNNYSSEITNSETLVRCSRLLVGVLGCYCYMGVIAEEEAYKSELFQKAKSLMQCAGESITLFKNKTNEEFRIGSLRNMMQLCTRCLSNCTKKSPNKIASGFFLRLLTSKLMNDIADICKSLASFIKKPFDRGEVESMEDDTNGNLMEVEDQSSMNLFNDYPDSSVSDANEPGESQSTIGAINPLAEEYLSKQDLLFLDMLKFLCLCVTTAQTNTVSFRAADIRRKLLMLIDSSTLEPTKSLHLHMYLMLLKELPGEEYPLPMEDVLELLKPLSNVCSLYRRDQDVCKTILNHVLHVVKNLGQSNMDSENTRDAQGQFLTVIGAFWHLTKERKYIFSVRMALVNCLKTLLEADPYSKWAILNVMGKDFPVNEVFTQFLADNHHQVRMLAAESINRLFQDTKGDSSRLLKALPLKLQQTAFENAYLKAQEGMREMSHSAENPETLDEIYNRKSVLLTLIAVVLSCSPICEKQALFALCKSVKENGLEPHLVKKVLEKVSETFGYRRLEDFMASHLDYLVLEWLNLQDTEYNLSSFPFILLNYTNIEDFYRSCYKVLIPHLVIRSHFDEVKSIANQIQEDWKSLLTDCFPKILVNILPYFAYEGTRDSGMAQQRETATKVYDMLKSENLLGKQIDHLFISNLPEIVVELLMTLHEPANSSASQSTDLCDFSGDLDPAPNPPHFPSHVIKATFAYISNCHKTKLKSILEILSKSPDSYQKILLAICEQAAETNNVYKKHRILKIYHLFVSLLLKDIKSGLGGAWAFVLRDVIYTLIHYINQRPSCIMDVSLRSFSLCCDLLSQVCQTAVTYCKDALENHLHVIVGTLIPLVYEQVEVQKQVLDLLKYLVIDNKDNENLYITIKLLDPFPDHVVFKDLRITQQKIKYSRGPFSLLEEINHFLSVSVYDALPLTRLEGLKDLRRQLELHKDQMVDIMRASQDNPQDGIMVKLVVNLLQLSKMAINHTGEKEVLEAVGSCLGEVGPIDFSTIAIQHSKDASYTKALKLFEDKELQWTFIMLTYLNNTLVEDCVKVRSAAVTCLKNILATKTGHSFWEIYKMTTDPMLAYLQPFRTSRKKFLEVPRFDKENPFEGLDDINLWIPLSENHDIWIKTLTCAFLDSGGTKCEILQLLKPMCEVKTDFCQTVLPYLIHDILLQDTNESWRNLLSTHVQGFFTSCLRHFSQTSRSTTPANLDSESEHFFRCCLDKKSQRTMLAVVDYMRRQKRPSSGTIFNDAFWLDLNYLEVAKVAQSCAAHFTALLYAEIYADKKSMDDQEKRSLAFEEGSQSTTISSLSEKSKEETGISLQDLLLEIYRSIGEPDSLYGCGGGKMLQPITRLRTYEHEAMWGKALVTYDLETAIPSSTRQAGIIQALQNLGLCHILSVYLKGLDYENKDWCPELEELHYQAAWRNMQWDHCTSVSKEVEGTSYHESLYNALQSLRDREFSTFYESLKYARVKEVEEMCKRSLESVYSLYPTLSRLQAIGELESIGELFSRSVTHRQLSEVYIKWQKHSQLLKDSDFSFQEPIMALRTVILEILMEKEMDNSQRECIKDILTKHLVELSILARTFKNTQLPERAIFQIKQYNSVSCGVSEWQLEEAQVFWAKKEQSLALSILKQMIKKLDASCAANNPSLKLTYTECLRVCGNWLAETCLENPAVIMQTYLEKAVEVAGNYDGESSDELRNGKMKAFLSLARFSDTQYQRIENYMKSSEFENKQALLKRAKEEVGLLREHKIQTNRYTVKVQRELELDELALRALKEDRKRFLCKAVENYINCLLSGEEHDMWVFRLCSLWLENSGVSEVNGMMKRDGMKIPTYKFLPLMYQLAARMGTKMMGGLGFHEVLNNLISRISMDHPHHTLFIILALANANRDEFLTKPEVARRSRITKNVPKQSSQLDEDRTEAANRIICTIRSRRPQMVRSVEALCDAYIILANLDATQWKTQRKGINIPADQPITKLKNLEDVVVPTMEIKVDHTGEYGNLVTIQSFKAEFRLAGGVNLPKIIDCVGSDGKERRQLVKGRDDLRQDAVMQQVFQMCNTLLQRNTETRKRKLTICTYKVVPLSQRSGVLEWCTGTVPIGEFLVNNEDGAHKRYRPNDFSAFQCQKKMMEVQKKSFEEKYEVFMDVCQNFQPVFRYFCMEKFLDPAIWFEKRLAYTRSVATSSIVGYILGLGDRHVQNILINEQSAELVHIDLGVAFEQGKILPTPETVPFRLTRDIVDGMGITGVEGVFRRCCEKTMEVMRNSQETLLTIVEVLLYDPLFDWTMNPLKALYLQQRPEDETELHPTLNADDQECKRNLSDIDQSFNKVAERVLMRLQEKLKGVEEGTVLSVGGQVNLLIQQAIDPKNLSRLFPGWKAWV

Take `CNCCCOc1ccc(-c2ccc3nnc(C(N)=O)c(N[C@@H](C)C4CCOCC4)c3c2)cn1` [Example 4, 6-[6-(3-Methylaminopropoxy)pyridin-3-yl]-4-[[(1S)-1-(oxan-4-yl)ethyl]amino]cinnoline-3-carboxamide]: the IC50 amounted to 7.72 nM.

As for `CNCCCOc1ccc(-c2ccc3nnc(C(=O)NC)c(N[C@@H](C)C4CCOCC4)c3c2)cn1` [Example 5, N-Methyl-6-[6-(3-methylaminopropoxy)pyridin-3-yl]-4-[[(1S)-1-(oxan-4-yl)ethyl]amino]cinnoline-3-carboxamide], the IC50 was 4.91 nM.
